# Publication PMC9266822, “Thermal Shift Assay for Small GTPase Stability Screening: Evaluation and Suitability” (International Journal of Molecular Sciences, 2022)
# Entries after “also recorded” stand apart in the source; their conditions may differ.
# Columns and labels:
# KRAS V14I [1] = test system: T1, KRAS V14I; assay: SYPRO Orange / ANS thermal ramping assay; format: binding; conditions: KRAS V14I 10 µM, 1 mM MgCl2; 100 µM ATP
# T1 construct: KRAS V14I (residues 1-169) lacking the C terminal residues; made in house
# Experimental: (§1) SYPRO Orange and ANS assays were performed using a one-step protocol, where the samples (8 µL) and SYPRO Orange/ANS solution (12 µL) were combined prior to the first heating step. The samples were incubated for 3 min at each temperature, followed by fluorescence signal measurement. SYPRO Orange was used at 5× (stock 5000×) and ANS at 10 µM final concentration.
# Thermal stability curves for KRAS WT, G12C, G13D, and Q61R (0–30 µM) were monitored both with SYPRO Orange and ANS in an assay buffer with or without 1 mM MgCl2. In addition, HRAS, NRAS, KRAS V14I, RhoA, and Gαi were studied at 10 µM concentration. KRAS G13D (3 µM) was assayed with SYPRO Orange in thermal ramping in combination with 0–1000 µM GDP, 1000 µM GTP, and 1000 µM ATP in a buffer supplemented with 1 mM MgCl2. […]
# NRAS, HRAS, RhoA, Gαi = assay: Protein-Probe thermal stability assay, additional GTPases; format: binding; conditions: any tested condition or protein; data not shown
# Experimental: All Protein-Probe assays were performed using a sample volume of 8 μL and a two-step assay protocol. […] Assays were performed in a sample buffer containing 10 mM HEPES (pH 7.5), 0.001% Triton X-100 and 20 mM NaCl and the buffer was supplemented with 0-10 mM MgCl2, 0-1 mM CaCl2, or 0-1 mM EDTA, depending on the assay. […] Depending on the studied protein, thermal ramping was performed up to 95 °C, using 5 °C intervals. At each temperature, samples were incubated for 3 min before the Protein-Probe solution was added, and the TRL-signals at 620 nm were monitored at RT.
# KRAS G13D [2] = test system: T2, KRAS G13D; assay: SYPRO Orange thermal ramping assay; format: binding, human; conditions: KRAS G13D 3 µM, 1 mM MgCl2, GDP 1 µM, ATP 1 mM
# T2 construct: GG-Hs.KRAS4b (2-188) G13D; His6-MBP (N, cleaved yes); made in house; host or cells: E. coli
# Experimental: as §1
# Thermal stability curves for KRAS WT, G12C, G13D, and Q61R (0–30 µM) were monitored both with SYPRO Orange and ANS in an assay buffer with or without 1 mM MgCl2. In addition, HRAS, NRAS, KRAS V14I, RhoA, and Gαi were studied at 10 µM concentration. KRAS G13D (3 µM) was assayed with SYPRO Orange in thermal ramping in combination with 0–1000 µM GDP, 1000 µM GTP, and 1000 µM ATP in a buffer supplemented with 1 mM MgCl2. Additionally, 10 µM HRAS, NRAS, KRAS V14I, Ac-KRAS iMet-KRAS, RhoA, and Gαi were studied without additional nucleotides or with 10 or 100 µM GDP/GTP in an assay buffer supplemented with 1 mM MgCl2 or 1 mM EDTA.
# KRAS G13D [3] = test system: T2, KRAS G13D; assay: Protein-Probe thermal stability assay; format: binding, human
# Experimental: (§2) All Protein-Probe assays were performed using a sample volume of 8 µL and a two-step assay protocol. Detection was performed at room temperature (RT) by adding 65 µL Protein-Probe solution: 4 µM HIDC (1,1,3,3,3′,3′-hexamethylindodicarbocyanine iodide) and 1–1.5 nM Eu^3+-labeled peptide probe (NH2-[…]). Assays were performed in a sample buffer containing 10 mM HEPES (pH 7.5), 0.001% Triton X-100 and 20 mM NaCl and the buffer was supplemented with 0–10 mM MgCl2, 0–1 mM CaCl2, or 0–1 mM EDTA, depending on the assay. In all thermal stability assays, samples were preincubated at RT for 10 min (nucleotides) or 30 min (inhibitors) prior to thermal measurements. Depending on the studied protein, thermal ramping was performed up to 95 °C, using 5 °C intervals. At each temperature, samples were incubated for 3 min before the Protein-Probe solution was added, and the TRL-signals at 620 nm were monitored at RT.
# (§3) In addition, KRAS WT was monitored in a sample buffer supplemented with 0–10 mM MgCl2 or 0–1 mM CaCl2.
# (§4) KRAS G13D (50 nM) was monitored in the presence of 0–900 nM GDP, and KRAS WT, G13D, G12D, and Q61R (50 nM) were monitored with 10 and/or 100 µM GDP, GTP, and ATP in buffer supplemented with 1 mM MgCl2. KRAS WT (50 nM) was also monitored with 10 µM GDP in a buffer without MgCl2 or supplemented with 0–1 mM CaCl2 or 1 mM EDTA. HRAS (2 µM), NRAS (2 µM), RhoA (2 µM), and Gαi (50 nM) were monitored with 100 µM GDP, GTP, or ATP in buffers with or without 1 mM MgCl2 and 1 mM EDTA. In addition, melting curves for KRAS WT (50 nM) were measured with GTP analogs GTPγS, GMPPNP, and GMPPCP (0–300 µM), and GMP (0–1000 µM) in the presence of 1 mM MgCl2.
# (§5) Assays were performed using three DARPins alone or in combination with small molecular inhibitors. […] The thermal curves were monitored after an additional 30 min incubation at RT.
# KRAS Q61R = test system: T3, KRAS Q61R; assay: Protein-Probe thermal stability assay; format: binding, human
# T3 construct: GG-Hs.KRAS4b (2-188) Q61R; His6-MBP (N, cleaved yes); made in house; host or cells: E. coli
# Experimental: as §2, §3, §4, §5
# KRAS G12D = assay: Protein-Probe thermal stability assay; format: binding, human; conditions: Table S1; KRAS G12D 50 nM; MgCl2 1 mM, GDP 10 mM as headed
# Experimental: as §2, §3, §4
# All inhibitor assays were performed with a buffer containing 1 mM MgCl2.
# as §5
# KRAS Q61L = test system: T4, KRAS Q61L; assay: Protein-Probe thermal stability assay; format: binding, human; conditions: Table S1; KRAS Q61L 50 nM; MgCl2 1 mM
# T4 construct: GG-Hs.KRAS4b (2-188) Q61L; His6-MBP (N, cleaved yes); made in house; host or cells: E. coli
# Experimental: as §2, §3, §5
# KRAS WT = test system: T5, KRAS WT; assay: Protein-Probe thermal stability assay; format: binding, human; conditions: for Thermal Stability (°C): Table S1
# T5 construct: His6-MBP (N, cleaved yes); made in house; host or cells: E. coli
# Experimental: as §2, §3
# as §4, with “KRAS G13D (50 nM) was monitored in the presence of 0–900 nM GDP, and KRAS WT, G13D, G12D, and Q61R (50 nM) were monitored with 10 and/or 100 µM GDP, GTP, and ATP in buffer supplemented with 1 mM MgCl2.” left out
# (§6) All inhibitor assays were performed with a buffer containing 1 mM MgCl2. […]
# KRAS G12C = test system: T6, KRAS G12C; assay: Protein-Probe thermal stability assay; format: binding, human; conditions: Table S1; KRAS G12C 50 nM; EDTA 0.5 mM, MgCl2 1 mM
# T6 construct: GG-Hs.KRAS4b (2-188) G12C; His6-MBP (N, cleaved yes); made in house; host or cells: E. coli
# Experimental: All Protein-Probe assays were performed using a sample volume of 8 µL and a two-step assay protocol. […] Assays were performed in a sample buffer containing 10 mM HEPES (pH 7.5), 0.001% Triton X-100 and 20 mM NaCl and the buffer was supplemented with 0–10 mM MgCl2, 0–1 mM CaCl2, or 0–1 mM EDTA, depending on the assay. In all thermal stability assays, samples were preincubated at RT for 10 min (nucleotides) or 30 min (inhibitors) prior to thermal measurements. […] At each temperature, samples were incubated for 3 min before the Protein-Probe solution was added, and the TRL-signals at 620 nm were monitored at RT. […]
# as §6
# Gαi = assay: Protein-Probe thermal stability assay; format: binding
# Experimental: as §2, §3, §4
# KRAS V14I [4] = test system: T1, KRAS V14I; assay: Protein-Probe thermal stability assay; format: binding; conditions: Table S1; KRAS V14I 1 µM; MgCl2
# Experimental: as §2
# RhoA = test system: T7, RhoA; assay: Protein-Probe thermal stability assay; format: binding; conditions: Table S1; RhoA 1 µM; additive concentrations not given (100 µM GDP/GTP)
# T7 construct: and RhoA (1-182) were gen-; His6-MBP (N, cleaved yes); made in house; host or cells: E. coli
# Experimental: as §2, §3
# as §4, with “HRAS (2 µM), NRAS (2 µM), RhoA (2 µM), and Gαi (50 nM) were monitored with 100 µM GDP, GTP, or ATP in buffers with or without 1 mM MgCl2 and 1 mM EDTA.” left out
# Ac-KRAS = test system: T8, Ac-KRAS; assay: Protein-Probe thermal stability assay; format: binding, human; conditions: Table S1; Ac-KRAS 1 µM; MgCl2
# T8 construct: Truncated (aa 1–169) iMet-
# Experimental: as §2, §3
# iMet-KRAS = test system: T9, iMet-KRAS; assay: Protein-Probe thermal stability assay; format: binding, human; conditions: Table S1; iMet-KRAS 1 µM; MgCl2
# T9 construct: iMet-KRAS (G-Hs.KRAS4b(1-169)) (Addgene #159539)
# Experimental: as §2, §3
smiles,measurement,setting,value
"Nc1ncnc2c1ncn2[C@@H]1O[C@H](COP(=O)(O)OP(=O)(O)OP(=O)(O)O)[C@@H](O)[C@H]1O [ATP, adenosine-5’-triphosphate]",effect on stability,KRAS V14I [1],no effect
same,stabilization,"NRAS, HRAS, RhoA, Gαi",no stabilization
same,stabilization,KRAS G13D [2],no effect; also recorded: no KRAS G13D stabilization
[Cl-].[Cl-].[Mg+2] [MgCl2],Tm,"KRAS G13D [3]; KRAS G13D 100 nM, additive 1 mM",47.7 ± 0.4 °C
same,Thermal Stability (°C),"KRAS G13D [3]; Table S1, KRAS G13D 50 nM, EDTA 0.5 mM, MgCl2 1 mM, GDP 10 mM, GTP 10 µM as headed",50.7 ± 0.2 °C
same,Tm,"KRAS Q61R; KRAS Q61R 100 nM, additive 1 mM",66.5 ± 0.5 °C
same,Thermal Stability (°C),"KRAS Q61R; Table S1, KRAS Q61R 50 nM, EDTA 0.5 mM, MgCl2 1 mM, GDP 10 mM, GTP 10 µM as headed",71.9 ± 0.6 °C
same,Thermal Stability (°C),KRAS G12D,60.6 ± 0.5 °C
same,Thermal Stability (°C),KRAS Q61L,60.4 ± 0.5 °C
same,stability increase compared to 1 mM EDTA,"KRAS WT; KRAS WT 50 nM, additive 1 mM",9.1 °C
same,Tm,"KRAS WT; KRAS WT 100 nM, 10 mM MgCl2",64.7 ± 0.5 °C
same,increase of thermal stability over that without MgCl2,"KRAS WT; KRAS WT 100 nM, 1 or 10 mM MgCl2",approximately 10 °C
same,Tm,"KRAS WT; KRAS WT 100 nM, additive 1 mM",60.1 ± 0.3 °C
same,Thermal Stability (°C),"KRAS WT; KRAS WT 50 nM, additive as headed: EDTA 0.5 mM, MgCl2 1 mM, GDP 10 mM, GTP 10 µM, GTPγS 10 µM, GMP-PNP 300 µM, GMP-PCP 300 µM, GMP 1 mM",61.3 ± 0.5 °C
same,Thermal Stability (°C),"KRAS WT; KRAS WT 1 µM, MgCl2",54.4 ± 0.6 °C
same,Thermal Stability (°C),KRAS G12C,61.8 ± 0.5 °C
same,effect of Mg2+ on thermal stability,Gαi,~ 4.2 °C
same,Thermal Stability (°C),KRAS V14I [4],47.5 ± 0.2 °C
same,Thermal Stability (°C),RhoA,61.3 ± 0.3 °C
same,Thermal Stability (°C),Ac-KRAS,66.0 ± 1.0 °C
same,Thermal Stability (°C),iMet-KRAS,66.9 ± 0.2 °C
